Data reported in patent US20070027175A1, “Antineoplastic activities of ellipticine and its derivatives” (priority 2005, published 2007).

What was measured:
[1] = test system: 8226/Dox1V cells; test: Drug resistance and cytotoxicity MTT assay, 8226/Dox1V; assay type: cell-based, human
Method: (§1) FIGS. 13A-13B show dose response of RPMI 8226 and 8226/Dox1V myeloma cells to EPED3 (FIG. 13A) or Dox (FIG. 13B). Cells were incubated for 96 hours with drug concentrations as indicated and analyzed by MTT assays; linear regression analysis was used to determine the IC50 for each drug (EPED3, FIG. 13A; Dox, FIG. 13B) and each cell line (RPMI8226, squares; 8226/Dox1V, circles). Data are presented as the mean of four independent experiments.
The 8226/Dox1V cell line was established by chronic exposure to Dox in presence of P-glycoprotein inhibitor, verapamil and was characterized by reduced expression and activity of topo II (Futscher et al., 1993).
(§2) The 8226/Dox1V and its parental line, RPMI 8226, cells were plated in 96-well plates at 10,000 cells/well and incubated with serial dilutions of EPED3 or Dox, as previously described (Landowski et al., 1999). After 96 hours incubation at 37° C., MTT was added to each well at a final concentration of 20 μg/ml and incubated an additional 4 hours. Plates were centrifuged and the media replaced with 0.1 ml DMSO to solublize the formazan complex. Optical density was measured at 540 nm using a Bio-Tek microplate spectrophotometer. IC50 values were calculated by linear regression analysis (Origins® Software Technologies, Inc.) of the log-linear plot for percent survival versus log drug concentration.
In drug resistance studies, the efficacy of EPED3 with 8226/Dox1V cells and the parental line, RPMI 8226 cells was investigated. Both cell lines were treated with either EPED3 or Dox, and the MTT assays were used to assess cell growth. Linear regression analysis of 96-hour dose-response curves was used to compare cytotoxicity of EPED3 in 8226/Dox1V and RPMI 8226 cell lines.

[2] = test system: RPMI 8226 cells; test: Drug resistance and cytotoxicity MTT assay, RPMI 8226; assay type: cell-based, human; details: Homo sapiens, 96 hours
Method: as §1, §2
In drug resistance studies, the efficacy of EPED3 with 8226/Dox1V cells and the parental line, RPMI 8226 cells was investigated. Both cell lines were treated with either EPED3 or Dox, and the MTT assays were used to assess cell growth. […]

[3] = test system: 12 myeloma cell lines (Ark, BW288, CAG, Delta47, DF15, JJN3, kms11, L363, opm2, RPMI8226, U266 and XG1); test: Comparative study with existing anti-myeloma drugs (CellTiter-Glo); assay type: cell-based, human; details: 0.2 μM; in 5 days
From the text: The results obtained from these controls are pooled together in the figure (●). The dose of each compound was set […].
Comparative study of NSC 338258 with existing anti-myeloma drugs Myeloma cell lines were exposed to NSC 338258 and existing anti myeloma drugs, Adriamycin® (Doxorubicin Hydrochloride) and Etoposide (VP-16-213) in ninety six well culture plates. The concentration of each compound was set […]. […] The cell growth was near zero in the following days (day 4 onwards; FIG. 6). It was also observed that 12 myeloma cell lines (Ark, BW288, CAG, Delta47, DF15, JJN3, kms11, L363, opm2, RPMI8226, U266 and XG1) responded to the same dosage (0.2 μM) of NSC 338258, VP-16-213 and Adriamycin in 5 days.

[4] = test system: DNA strand breakage; details: Multon et al., 1989; cited from earlier work

For `COc1cccc2c1C(=O)c1c(O)c3c(c(O)c1C2=O)C[C@@](O)(C(=O)CO)C[C@@H]3O[C@H]1C[C@H](N)[C@H](O)[C@H](C)O1` [Dox, Doxorubicin, reference compound], the IC50 ([1]; Homo sapiens, 8226/Dox1V, 96 hours) was 294 nM, the “resistance of 8226/Dox1V versus parental RPMI 8226” value ([1]; ratio of IC50, 96 hours) was 7.3 fold and the IC50 [2] was 40 nM. The “response of 12 myeloma cell lines” value [3] was “responded”.
In the case of `Cc1c2cc[n+](C)cc2c(C)c2c1[nH]c1ccc(O)cc12` [Celiptium], the “potency in DNA strand breakage, times less than m-AMSA” value [4] is listed as 50 times.
In the case of `CCN(CC)CC[n+]1ccc2c(C)c3[nH]c4ccc(O)cc4c3c(C)c2c1` [Detalliptinium], the “potency in DNA strand breakage, times less than m-AMSA” value [4] is listed as 50 times.
